Values of other authors as cited in patent US9662359B2, “Compositions and methods for treating depression” (Alexander Vuckovic, M.D., LLC, priority 2010, dated 2017).

Settings: oral SAMe

Substance: S-Adenosyl methionine [SAMe]
- half-life: about 100 minutes
